# Test results from paper PMC8954540, “A New Class of PSMA-617-Based Hybrid Molecules for Preoperative Imaging and Intraoperative Fluorescence Navigation of Prostate Cancer” (Pharmaceuticals, 2022).
# Columns and labels:
# LNCaP cells [1] = assay: Specific cell surface binding and internalization of 68Ga-labeled compounds; assay type: cell-based
# Protocol: (§1) LNCaP cells (CRL-1740; ATCC; PSMA-positive) and PC-3 cells (CRL-1435; ATCC; PSMA-negative) were cultured in RPMI medium (Thermo Fisher Scientific, Waltham, MA, USA) supplemented with 10% fetal calf serum and 2 mmol/L L-glutamine (all from (Thermo Fisher Scientific, Waltham, MA, USA) ) at 37 °C in humidified air with 5% CO2. Cells were harvested using trypsin-ethylenediaminetetraacetic acid (trypsin-EDTA; 0.25% trypsin, 0.02% EDTA, Invitrogen, Waltham, MA, USA). Cell line authentication was regularly performed. Binding affinities and internalization profiles of the ^68Ga-labeled compounds were determined in competitive cell binding assays and internalization experiments as described previously.
# PSMA = biological target: T1, PSMA (Homo sapiens, UniProt Q04609); assay: Competitive cell binding assay (radioligand 68Ga-PSMA-10); conditions: free ligands, mean ± SD, n = 3
# T1 construct: LNCaP cells (CRL-1740; ATCC; PSMA-positive); host or cells: LNCaP cells
# T1 sequence (Q04609 whole entry): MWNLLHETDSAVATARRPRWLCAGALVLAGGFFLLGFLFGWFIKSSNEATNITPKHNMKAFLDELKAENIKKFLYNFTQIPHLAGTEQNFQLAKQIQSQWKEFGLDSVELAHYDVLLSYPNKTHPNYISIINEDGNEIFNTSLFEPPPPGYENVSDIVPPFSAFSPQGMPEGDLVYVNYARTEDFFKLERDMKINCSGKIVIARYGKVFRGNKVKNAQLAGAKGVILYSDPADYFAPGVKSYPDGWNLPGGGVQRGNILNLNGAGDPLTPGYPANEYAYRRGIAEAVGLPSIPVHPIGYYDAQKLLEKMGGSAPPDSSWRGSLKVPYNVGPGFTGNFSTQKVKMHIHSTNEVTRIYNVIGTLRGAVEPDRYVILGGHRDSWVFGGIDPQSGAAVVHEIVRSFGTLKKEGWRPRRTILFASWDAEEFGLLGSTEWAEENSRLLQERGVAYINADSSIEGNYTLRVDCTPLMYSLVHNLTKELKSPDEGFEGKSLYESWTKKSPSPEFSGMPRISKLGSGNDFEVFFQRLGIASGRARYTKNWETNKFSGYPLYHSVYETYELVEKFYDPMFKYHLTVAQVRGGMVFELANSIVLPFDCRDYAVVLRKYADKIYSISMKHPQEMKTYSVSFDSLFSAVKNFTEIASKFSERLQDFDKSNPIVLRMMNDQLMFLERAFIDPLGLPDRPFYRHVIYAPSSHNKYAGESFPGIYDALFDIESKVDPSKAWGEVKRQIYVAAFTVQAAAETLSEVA
# Protocol: as §1
# LNCaP cells [2] = assay: Confocal fluorescence imaging, PSMA-positive cells; assay type: cell-based; conditions: 50 nmol/L, 60 min of internalization
# Protocol: (§2) For confocal microscopy sample preparation, 10^5 cells/well were seeded in poly-L-lysine (Sigma-Aldrich, Darmstadt, Germany) coated 4-well chambered coverslips (Nunc Lab-Tek II chambered coverglasses, Thermo Fisher Scientific, Waltham, MA, USA, live cell imaging) or on poly-L-lysine (Sigma-Aldrich, Darmstadt, Germany) coated #1 coverslips (15 mm diameter, fixed cell imaging) and kept for 48 h at 37 °C in humidified air with 5% CO2. Subsequently, cells were incubated with 50 nmol/L PSMA-927in RPMI for 5/15/30/45/60 min at 37 °C in humidified air with 5% CO2. […]
# (§3) All confocal data were acquired with a custom-built STED system similar to the one published by Gorlitz et al.. […] Laser powers were measured in front of the microscope body. […]
# (§4) The integrated fluorescence intensity was extracted with a custom-written ImageJ routine. […] Multiplying this mask with the corresponding raw image generates an output image with which the integrated fluorescence intensity can be evaluated exclusively in the signal-carrying parts of the raw image without summing up background.
# LNCaP cells [3] = assay: Cytotoxicity study by holographic time-lapse imaging; assay type: cell-based; conditions: 100 nmol/L, constant exposure for 48 h
# Protocol: Potential cytotoxicity of PSMA-927 was assessed by analyzing the frequency of LNCaP cell division and the length of the LNCaP cell cycle via holographic time-lapse imaging. Cells were seeded in lumox® 24-well plates (Sarstedt, Nümbrecht, Germany) 48 h prior to the experiment and kept at 37 °C and 5% CO2. Imaging was performed with a HoloMonitor® M4 cytometer (PHI AB, Lund, Schweden) for a total period of 48 h at 37 °C and 5% CO2 with 15 min between image captures. Cell proliferation was followed in absence and in presence of 100 nmol/L PSMA-927. Data analysis was performed with the AppSuite software including cell segmentation, tracking of cells, identification of dividing cells, confluency measurement, and cell counting.
# PC-3 cells = assay: Confocal fluorescence imaging, PSMA-negative cells; assay type: cell-based; conditions: PSMA-negative PC-3 cells, 50 nmol/L
# Protocol: as §2, §3, §4
# [4] = Lipophilicity, logD at pH 7.4 in n-octanol/PBS; assay type: physicochemical; conditions: 68Ga-labeled ligand
# Protocol: The synthesis was performed according to previously published protocols. Details on synthesis and analytical data of the compounds are provided in the Supplementary Materials (Compound Synthesis and Analytical Characterization). […] Using 30% NaOH (Sigma-Aldrich, Darmstadt, Germany) and 10% NaOH (Sigma-Aldrich, Darmstadt, Germany), the pH was adjusted to 3.8. The reaction mixture was incubated at 98 °C for 5–10 min. The radiochemical yield was analyzed by reversed-phase high-performance liquid chromatography (RP-HPLC) or reversed-phase thin-layer chromatography (RP-TLC, 60 RP-18 F254S, Sigma-Aldrich, Darmstadt, Germany) with 0.5 M ammonium acetate/methanol (1:1) as the mobile phase. The lipophilicity of the ^68Ga-labeled compounds was determined using the 2-phase system n-octanol and PBS.
# [5] = Spectral properties (absorption and emission); assay type: physicochemical; conditions: 10 μM in PBS (pH 7.4)
# Protocol: Absorbance was measured with a Varian Cary 500 UV-VIS NIR Spectrophotometer (Agilent, Santa Clara, CA, USA) equipped with the software Cary 500 (EPROM Version 8.01, Agilent, Santa Clara, CA, USA) in the 200–1200 nm interval. Fluorescence emission was measured with a Varian Cary Eclipse Fluorescence-Spectrophotometer (Agilent, Santa Clara, CA, USA) equipped with the software Cary Eclipse (Version 1.1, Agilent, Santa Clara, CA, USA) with excitation at 710 nm in the 720–900 nm interval. PSMA-927 was diluted to 10 μM in PBS (pH 7.4) and measured in standard 1 cm quartz cuvettes.
# [6] = tested on: LNCaP-tumor bearing BALB/c nu/nu mice; assay: Biodistribution (organ distribution) in tumor xenograft model; assay type: in vivo; conditions: 0.06 nmol; for Organ distribution Blood / Organ distribution Brain / Organ distribution Heart / Organ distribution Intestine / Organ distribution Kidney / Organ distribution Liver / Organ distribution Lung / Organ distribution Muscle / Organ distribution Spleen / Organ distribution Tumor: n=3
# Protocol: (§5) Biodistribution and proof-of-concept imaging studies were performed in an experimental tumor xenograft model. A total of 5 × 10^6 cells of LNCaP (in 50% Matrigel; Becton Dickinson, Franklin Lakes, NJ, USA) were subcutaneously inoculated into the flank of 7- to 8-week-old male BALB/c nu/nu mice (Charles River, Wilmington, MA, USA/Janvier Labs, Le Genest-Saint-Isle, France).
# For biodistribution studies, 60 pmol of ^68Ga-labeled PSMA-927 were injected into the tail vein (1–3 MBq, n = 3). The animals were sacrificed at 1 and at 2 h p.i., and organs of interest were dissected, blotted dry, and weighed. Finally, the radioactivity was measured using a gamma counter and calculated as % ID/g.
# [7] = tested on: LNCaP xenograft mouse model; assay: Small-animal PET/MRI proof-of-concept, PSMA-positive xenograft; assay type: in vivo, mice
# Protocol: as §5
# (§6) For the proof-of-concept imaging study, 0.5 nmol of the ^68Ga-labeled compound in 0.9% NaCl (pH 7) were injected into the tail vein under anesthesia (2% isoflurane, n = 1). PET/MRI was performed with a 3T PET/MRI scanner (Bruker, Ettlingen, Germany). For MR imaging, a nontriggered localizer followed by a T1-weighted 3D scan was applied. For PET imaging, a dynamic scan for 60 min and a static scan (20 min) at 2 h p.i. was recorded. Image reconstruction was done with ParaVision software (dynamic scan: MLEM 0.5 mm algorithm, 12 iterations; static scan: OSEM 0.25 mm algorithm, 1 iteration), and data analysis was conducted in PMOD (version 3.7) with data converted to SUV images. After PET/MRI, the mice were sacrificed, and optical imaging of the subcutaneous tumor and organs of interest was performed with the Odyssey CLx system (LI-COR Biosciences, excitation wavelength 800 nm).
# PC-3 tumor xenografts = assay: Small-animal PET/MRI proof-of-concept, PSMA-negative xenograft; assay type: in vivo, mice; conditions: 0.5 nmol, PSMA-negative PC-3 xenograft, n = 1
# Protocol: as §6
# [8] = 68Ga-labeled compounds, blockage with 500 µmol/L 2-PMPA, mean ± SD, n = 3
smiles,measurement,setting,value
"CC1(C)C(=CC=C2CCCC(C=CC3=[N+](CCCCCC(=O)NCCCCC(NC(=O)CN4CCN(CC(=O)O)CCN(CC(=O)O)CCN(CC(=O)O)CC4)C(=O)NCC4CCC(C(=O)NC(Cc5ccc6ccccc6c5)C(=O)NCCCCC(NC(=O)NC(CCC(=O)O)C(=O)O)C(=O)O)CC4)c4ccc(S(=O)(=O)O)cc4C3(C)C)=C2Oc2ccc(S(=O)(=O)O)cc2)N(CCCCS(=O)(=O)O)c2ccc(S(=O)(=O)O)cc21 (stereo not drawn) [PSMA-927, Glu-urea-Lys-2-Nal-Chx-Lys(IRDye800CW)-DOTA]",Specifically Cell Surface Bound,LNCaP cells [1]; [8],25.51 ± 9.73 %AR/10^5 Cells
same,Specifically Internalized,LNCaP cells [1]; [8],27.64 ± 12.80 %AR/10^5 Cells
same,Ki,PSMA; Ki=IC50/(1+cradioligand/Kd),13.2 ± 5.25 nM
same,IC50,"PSMA; radioligand 68Ga-PSMA-10, 0.75 nmol/L",15.9 ± 5.46 nM
same,integrated fluorescence intensity fixed,LNCaP cells [2]; PFA-fixed cells,3021 ± 863 counts
same,integrated fluorescence intensity live,LNCaP cells [2]; live cells,"11,618 ± 5412 counts"
same,"cytotoxicity (cell count, confluency, frequency of cell division, cell cycle length)",LNCaP cells [3],did not reveal any evidence of cytotoxicity
same,fluorescence signal increase,PC-3 cells,no significant fluorescence signal increase
same,Lipophilicity logDpH 7.4 n-octanol/PBS,[4],-2.96 ± 0.06
same,absorption maximum,[5],778 nm
same,emission maximum,[5]; excitation at 710 nm,796 nm
"CC1(C)C(=CC=C2CCCC(C=CC3=[N+](CCCCCC(=O)NCCCCC(NC(=O)CN4CCN(CC(=O)[O-])CCN(CC(=O)[O-])CCN(CC(=O)[O-])CC4)C(=O)NCC4CCC(C(=O)NC(Cc5ccc6ccccc6c5)C(=O)NCCCCC(NC(=O)NC(CCC(=O)O)C(=O)O)C(=O)O)CC4)c4ccc(S(=O)(=O)[O-])cc4C3(C)C)=C2Oc2ccc(S(=O)(=O)O)cc2)N(CCCCS(=O)(=O)O)c2ccc(S(=O)(=O)O)cc21.[68Ga+3] (stereo not drawn) [[^68Ga]Ga-PSMA-927, 68Ga-Glu-urea-Lys-2-Nal-Chx-Lys(IRDye800CW)-DOTA]",specific cell surface binding,LNCaP cells [1],25.51 ± 9.73 %ID/10^5 LNCaP cells
same,specific internalization rate,LNCaP cells [1],27.64 ± 12.80 %ID/10^5 LNCaP cells
same,Tumor-to-Organ ratio Blood,[6]; 1 h p.i.,3.69 ± 0.60
same,Tumor-to-Organ ratio Brain,[6]; 1 h p.i.,57.84 ± 9.25
same,Tumor-to-Organ ratio Heart,[6]; 1 h p.i.,8.57 ± 2.07
same,Tumor-to-Organ ratio Intestine,[6]; 1 h p.i.,10.37 ± 2.47
same,Tumor-to-Organ ratio Kidney,[6]; 1 h p.i.,0.06 ± 0.01
same,Tumor-to-Organ ratio Liver,[6]; 1 h p.i.,4.51 ± 0.84
same,Tumor-to-Organ ratio Lung,[6]; 1 h p.i.,2.84 ± 0.37
same,Tumor-to-Organ ratio Muscle,[6]; 1 h p.i.,12.23 ± 1.39
same,Tumor-to-Organ ratio Spleen,[6]; 1 h p.i.,1.76 ± 0.71
same,Organ distribution Blood,[6]; 1 h p.i.,1.14 ± 0.14 %ID/g
same,Organ distribution Brain,[6]; 1 h p.i.,0.07 ± 0.01 %ID/g
same,Organ distribution Heart,[6]; 1 h p.i.,0.51 ± 0.10 %ID/g
same,Organ distribution Intestine,[6]; 1 h p.i.,0.43 ± 0.12 %ID/g
same,Organ distribution Kidney,[6]; 1 h p.i.,65.64 ± 6.60 %ID/g
same,Organ distribution Liver,[6]; 1 h p.i.,0.95 ± 0.15 %ID/g
same,Organ distribution Lung,[6]; 1 h p.i.,1.47 ± 0.14 %ID/g
same,Organ distribution Muscle,[6]; 1 h p.i.,0.34 ± 0.03 %ID/g
same,Organ distribution Spleen,[6]; 1 h p.i.,2.82 ± 1.19 %ID/g
same,Organ distribution Tumor,[6]; 1 h p.i.,4.13 ± 0.15 %ID/g
same,Tumor-to-Organ ratio Blood,[6]; 2 h p.i.,7.58 ± 1.65
same,Tumor-to-Organ ratio Brain,[6]; 2 h p.i.,29.37 ± 13.17
same,Tumor-to-Organ ratio Heart,[6]; 2 h p.i.,14.79 ± 4.40
same,Tumor-to-Organ ratio Intestine,[6]; 2 h p.i.,11.92 ± 5.17
same,Tumor-to-Organ ratio Kidney,[6]; 2 h p.i.,0.13 ± 0.06
same,Tumor-to-Organ ratio Liver,[6]; 2 h p.i.,7.80 ± 3.09
same,Tumor-to-Organ ratio Lung,[6]; 2 h p.i.,6.11 ± 2.36
same,Tumor-to-Organ ratio Muscle,[6]; 2 h p.i.,11.55 ± 5.94
same,Tumor-to-Organ ratio Spleen,[6]; 2 h p.i.,3.60 ± 1.86
same,Organ distribution Blood,[6]; 2 h p.i.,0.82 ± 0.23 %ID/g
same,Organ distribution Brain,[6]; 2 h p.i.,0.24 ± 0.11 %ID/g
same,Organ distribution Heart,[6]; 2 h p.i.,0.43 ± 0.14 %ID/g
same,Organ distribution Intestine,[6]; 2 h p.i.,0.59 ± 0.26 %ID/g
same,Organ distribution Kidney,[6]; 2 h p.i.,57.47 ± 23.83 %ID/g
same,Organ distribution Liver,[6]; 2 h p.i.,0.87 ± 0.34 %ID/g
same,Organ distribution Lung,[6]; 2 h p.i.,1.11 ± 0.42 %ID/g
same,Organ distribution Muscle,[6]; 2 h p.i.,0.66 ± 0.30 %ID/g
same,Organ distribution Spleen,[6]; 2 h p.i.,2.08 ± 0.90 %ID/g
same,Organ distribution Tumor,[6]; 2 h p.i.,5.85 ± 0.91 %ID/g
same,tumor uptake in PET/MRI,"[7]; 0.5 nmol, PSMA-positive LNCaP xenograft, n = 1",strong and specific tumor uptake
same,pharmacokinetic profile (clearance),"[7]; time activity curves, PET/MRI","rapid clearance from non-malignant tissue (heart, liver, muscle) via the renal pathway"
same,tumor uptake in PET/MRI,PC-3 tumor xenografts,lack of measurable uptake
